As usually defined, the IC50 is the concentration at which inhibition is half-maximal. The term viability denotes a read-out of living cells in per cent, often relative to untreated cells. The low end stands for more harm to the cells, the high end for less harm to the cells. In general, inhibition refers to how much of the control response was suppressed. By melting point is commonly meant the temperature of the solid-liquid transition.

Data set [1] deals with HIV-1 reverse transcriptase (RTase) (Human immunodeficiency virus type 1 group M subtype B, UniProt P12497). Conditions: A3.01 cells, 10 μM, HIV-1NL4-3, 16 h after infection. An excerpt:
(forward) and 5′-[…] (reverse). […] (forward) and 5′-[…] (reverse).

Data set [2] is described as follows: Cell viability (resazurin-based PrestoBlue) in parallel with infectivity assay. Conditions: human, TZM-bl cells; for CC50 at 48 h: serial dilution starting from 100 μM, read-out: CC50 (concentration that reduces cell viability by 50%); for viability at 48 h, 3 µM: with infection of HIV-1 NL4-3 at MOI of 1.
The test system of data set [3] is HIV-1NL4-3. In words: HIV-1 infectivity assay in TZM-bl cells (F-Luc under HIV-1 LTR). The class given is cell-based. Particulars: Human immunodeficiency virus 1, NL43, TZM-bl; for IC50: read-out: IC50 (inhibition of HIV-1 infection); for inhibition at 3 µM: 48 h, read-out: Inhibition of HIV-1 Infectivity (%), TZM-bl cells, 3 μM, HIV-1 NL4-3 at MOI of 1, 48 h. From the text: TZM-bl cells (also referred as JC53BL-13) expressing human CD4, CXCR4, and CCR5 in order to facilitate HIV-1 infection, which contain the firefly luciferase (F-Luc) gene under the control of HIV-1 long terminal repeat (LTR) promoter was used to determine inhibitory effect of the compounds on HIV-1 infection, as described previously with minor modifications. […] Without replacement of a culture medium, the cells were then infected with the HIV-1NL4-3 strain at a multiplicity of infection (MOI) of 1 to determine the exact inhibitory effect of compounds on a single round infection. After 48 h, the inhibitory effect of the compounds was determined using a Bright Glo luciferase assay kit (Promega). The infectivity data are presented as a percentage relative to the DMSO control (vehicle). The inhibitory effects of the compounds on viral replication were determined with some minor modifications, as described previously. […] PBMCs were pre-activated with phytohemagglutinin M (PHA-M) for 3 days. The pre-activated 4 × 10^5 of PBMCs were washed with fresh media to remove excess PHA-M and then infected with HIV-1NL4-3 or HIV-1AD8 as that of A3.01 infection.

For a further data set, the target named is Tat with TAR RNA (Human immunodeficiency virus type 1 group M subtype B, UniProt P04608). Nature of the data set: Association of Tat with TAR RNA. On the set-up: species or system HIV-1. Conditions: manuscript in preparation [26].
Data set [4] concerns HIV-1NL4-3. Nature of the data set: HIV-1 replication assay (p24 […]) in PBMCs, CXCR4 tropic strain. The class given is cell-based. Particulars: HIV-1NL4-3 MOI 0.1, 1.5 μM, 72 h. The protocol: (§1) TZM-bl cells (also referred as JC53BL-13) expressing human CD4, CXCR4, and CCR5 in order to facilitate HIV-1 infection, which contain the firefly luciferase (F-Luc) gene under the control of HIV-1 long terminal repeat (LTR) promoter was used to determine inhibitory effect of the compounds on HIV-1 infection, as described previously with minor modifications. In brief, 1 × 10^4 cells were cultured in 96-well plates for 24 h and then treated with compounds at a final concentration of 3 μM (Figure 1A) or with 1:2 serially diluted compounds at concentrations ranging from 0 to 25 μM (dose-response assay; Figure 1B and Table 2). Without replacement of a culture medium, the cells were then infected with the HIV-1NL4-3 strain at a multiplicity of infection (MOI) of 1 to determine the exact inhibitory effect of compounds on a single round infection. After 48 h, the inhibitory effect of the compounds was determined using a Bright Glo luciferase assay kit (Promega). The infectivity data are presented as a percentage relative to the DMSO control (vehicle). The inhibitory effects of the compounds on viral replication were determined with some minor modifications, as described previously. In brief, 5 × 10^4 cells/ well of A3.01 cells were infected with HIV-1NL4-3 at an MOI of 0.1 with the spinoculation at 300 g for 2 h at 25 °C. PBMCs were pre-activated with phytohemagglutinin M (PHA-M) for 3 days. The pre-activated 4 × 10^5 of PBMCs were washed with fresh media to remove excess PHA-M and then infected with HIV-1NL4-3 or HIV-1AD8 as that of A3.01 infection. After infection, the infectious media were replaced with fresh media (supplemented with international 10 units (IU)/mL of IL-2 for PBMCs containing 1.5 μM of compounds. At 72 h after infection, the inhibitory effect of the compounds on viral replication was determined by measuring the amount of p24, an HIV capsid protein, using an HIV-1 p24 […]™ kit (PerkinElmer, Waltham, MA, USA). Cell viability was determined by using the resazurin-based PrestoBlue™ cell viability reagent (Thermo Fisher Scientific, Waltham, MA, USA) according to the manufacturer’s protocols.

A further data set relates to Tat protein. In words: Cellular expression level of Tat protein. The class given is cell-based, HIV-1. Particulars: manuscript in preparation [26].
In a further data set the test system is HIV-1Ad8. In words: HIV-1 replication assay (p24 […]) in PBMCs, CCR5 tropic strain. The class given is cell-based. Particulars: CCR5 tropic HIV-1Ad8 MOI 0.1, 1.5 μM, 72 h. The protocol:
TZM-bl cells (also referred as JC53BL-13) expressing human CD4, CXCR4, and CCR5 in order to facilitate HIV-1 infection, which contain the firefly luciferase (F-Luc) gene under the control of HIV-1 long terminal repeat (LTR) promoter was used to determine inhibitory effect of the compounds on HIV-1 infection, as described previously with minor modifications. In brief, 1 × 10^4 cells were cultured in 96-well plates for 24 h and then treated with compounds at a final concentration of 3 μM (Figure 1A) or with 1:2 serially diluted compounds at concentrations ranging from 0 to 25 μM (dose-response assay; Figure 1B and Table 2). Without replacement of a culture medium, the cells were then infected with the HIV-1NL4-3 strain at a multiplicity of infection (MOI) of 1 to determine the exact inhibitory effect of compounds on a single round infection. After 48 h, the inhibitory effect of the compounds was determined using a Bright Glo luciferase assay kit (Promega). The infectivity data are presented as a percentage relative to the DMSO control (vehicle). The inhibitory effects of the compounds on viral replication were determined with some minor modifications, as described previously. In brief, 5 × 10^4 cells/ well of A3.01 cells were infected with HIV-1NL4-3 at an MOI of 0.1 with the spinoculation at 300 g for 2 h at 25 °C. PBMCs were pre-activated with phytohemagglutinin M (PHA-M) for 3 days. […]

The subject of data set [5] is general cellular transcription. Nature of the data set: R-Luc activity in bl-DTR cells (general cellular transcription). The class given is cell-based. Conditions: high dosages (12.5 μM and 25 μM). Here is the method:
(§2) bl-DTR (TZM-bl-derived dual Tat reporter) cells derived from TZM-bl cells by insertion of two doxycycline-inducible lentiviral vector-expressing flag-tagged tat and Renilla-luciferase (R-Luc) genes were used to determine simultaneously both activities of Tat-mediated HIV-1 transcription and general cellular transcription, as described previously. Determination of the inhibitory effect of the compounds on Tat-mediated transcription was performed as described previously. In brief, 1 × 10^4 of bl-DTR cells cultured in 96-well plates were treated with compounds at a final concentration of 3 μM (Figure 3C) or with 1:2 serially diluted compounds at concentrations ranging from 0 to 25 μM (Figure 4 and Table 3). Subsequently, doxycycline was treated at a final concentration of 50 ng/mL to induce Tat-mediated F-Luc and R-Luc. At 24 h after treatment, the activities of F-Luc and R-Luc were determined by using a Dual-Glo™ luciferase assay system (Promega, Madison, WI, USA) according to the manufacturer’s protocols. The data are presented as a percentage relative to the DMSO control (vehicle) in the presence of doxycycline, and the experiment was performed in triplicate.

The next data set deals with Tat and cyclin T1 (Human immunodeficiency virus type 1 group M subtype B, UniProt P04608). Nature of the data set: Interaction between Tat and cyclin T1. Particulars: manuscript in preparation [26].
Data set [6] relates to HIV-1NL4-3. Nature of the data set: HIV-1 replication assay (p24 […]) in A3.01 T cell line. The class given is cell-based. Conditions: A3.01 cells, HIV-1NL4-3 MOI 0.1, 1.5 μM, 72 h. The protocol:
as §1

For data set [7], the system named is Tat-mediated HIV-1 transcription. Nature of the data set: microbe, parasite or virus in culture. Conditions: for IC50: Human immunodeficiency virus 1, 24 h, read-out: IC50 (inhibition of Tat-mediated HIV-1 transcription). The class given is cell-based. Here is the method: as §2
A further data set concerns Tat. In words: Nuclear localization of Tat. The class given is cell-based, HIV-1. Particulars: manuscript in preparation [26].
The next data set relates to TZM-bl cells. Nature of the data set: Cell viability (resazurin-based PrestoBlue) in parallel with infectivity assay. Conditions: 3 μM, with infection of HIV-1 NL4-3 at MOI of 1.

A value given as a limit tells only on which side of the number the result lay.

Sequence of Tat with TAR RNA (P04608 whole entry): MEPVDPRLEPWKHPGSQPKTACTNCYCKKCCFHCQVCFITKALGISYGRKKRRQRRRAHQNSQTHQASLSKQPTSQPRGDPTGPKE
Sequence of Tat and cyclin T1 (P04608 whole entry): as above

Turning to `O=C1Nc2ccc(Cl)cc2[C@@](C#CC2CC2)(C(F)(F)F)O1` [EFV, efavirenz, reference compound], in data set [1], the “Inhibition of RTase activity (level of HIV-1 RT product)” value is reported as “inhibited”. Besides, the CC50 at 48 h in data set [2] is 34.2 ± 0.59 µM. Moreover, the IC50 with HIV-1NL4-3 [3] was under 50 nM.

In the case of `COC(=O)C1(CC=C(Cl)Cl)Nc2cc(C)cc(C)c2C1=O` (centres unmarked) [Compound 6g, Methyl 2-(3,3-dichloroallyl)-4,6-dimethyl-3-oxindole-2-carboxylate], the melting point is over 300 °C. In addition, the “Inhibition of association of Tat with TAR RNA” value on Tat with TAR RNA is reported as “did not inhibit”. The “Inhibitory effect on viral replication (p24)” value (“Inhibitory effect” below) with HIV-1NL4-3 [4] is reported as “half inhibition”. Further, in the data set with Tat protein, the “Inhibition of cellular expression level of Tat protein” value is “did not inhibit”. Also, the “Inhibitory effect” value with HIV-1Ad8 is “inhibited replication”. In data set [2], the viability at 48 h, 3 µM is 87.9 ± 0.82% and the CC50 at 48 h amounted to 43.6 ± 10.5 µM. Also, the R-Luc activity entry in data set [5] was “decrease in R-Luc activity”. The “Inhibition of interaction between Tat and cyclin T1” value at Tat and cyclin T1 is on record as “did not inhibit”. In addition, in the data set with HIV-1NL4-3 [3], the inhibition at 3 µM was determined as 85.4 ± 1.44% and the 50% inhibitory concentration (IC50) is 1280 ± 959 nM. Further, the “Inhibitory effect” value with HIV-1NL4-3 [6] was “half inhibition”. The 50% inhibitory concentration (IC50) in data set [7] was 2850 ± 630 nM. Further, the “Inhibition of nuclear localization of Tat” value in the data set on Tat is reported as “did not inhibit”.

The molecule `COC(=O)C1(C/C=C/Cl)Nc2cc(C)cc(C)c2C1=O` (centres unmarked) [Compound 6f, Methyl (E)-2-(3-chloroallyl)-4,6-dimethyl-3-oxindole-2-carboxylate] yielded a melting point of over 300 °C. In addition, the “Inhibition of association of Tat with TAR RNA” value at Tat with TAR RNA is “did not inhibit”. The “Inhibitory effect” value with HIV-1NL4-3 [4] is “near-complete abrogation”. The “Inhibition of cellular expression level of Tat protein” value with Tat protein was “did not inhibit”. For the same molecule, in the data set on HIV-1Ad8, the “Inhibitory effect” value was “inhibited replication”. Further, the “Cell Viability (%)” value with TZM-bl cells was “without cytotoxicity”. Moreover, in [2], the viability at 48 h, 3 µM turned out to be 93 ± 5.39% and the CC50 at 48 h was 51 ± 4.44 µM. The “Inhibition of interaction between Tat and cyclin T1” value on Tat and cyclin T1 was “did not inhibit”. Moreover, in the data set with HIV-1NL4-3 [3], the inhibition at 3 µM came out at 91.9 ± 1.78% and the IC50 amounted to 458 ± 22.7 nM. The “Inhibitory effect” value in the data set with HIV-1NL4-3 [6] is reported as “near-complete abrogation”. Moreover, in data set [7], the IC50 was determined as 1200 ± 40 nM. Also, the “Concentration of complete inhibition of Tat-induced transcriptional activity” value in data set [7] (bl-DTR cells, concentration response) was “approximately 6 μM”. In the data set on Tat, the “Inhibition of nuclear localization of Tat” value was “did not inhibit”.
